Key:
[1] = molecular target: T1, human CYP11B1 (Homo sapiens, UniProt P15538); assay: Inhibition of hCYP11B1 in transfected V79 cells; type: cell-based; conditions: hamster V79 cells expressing human CYP11B1; substrate 11-deoxycortisol 200 nM
T1 construct: expressed in transfected cells
T1 sequence (P15538 25-503): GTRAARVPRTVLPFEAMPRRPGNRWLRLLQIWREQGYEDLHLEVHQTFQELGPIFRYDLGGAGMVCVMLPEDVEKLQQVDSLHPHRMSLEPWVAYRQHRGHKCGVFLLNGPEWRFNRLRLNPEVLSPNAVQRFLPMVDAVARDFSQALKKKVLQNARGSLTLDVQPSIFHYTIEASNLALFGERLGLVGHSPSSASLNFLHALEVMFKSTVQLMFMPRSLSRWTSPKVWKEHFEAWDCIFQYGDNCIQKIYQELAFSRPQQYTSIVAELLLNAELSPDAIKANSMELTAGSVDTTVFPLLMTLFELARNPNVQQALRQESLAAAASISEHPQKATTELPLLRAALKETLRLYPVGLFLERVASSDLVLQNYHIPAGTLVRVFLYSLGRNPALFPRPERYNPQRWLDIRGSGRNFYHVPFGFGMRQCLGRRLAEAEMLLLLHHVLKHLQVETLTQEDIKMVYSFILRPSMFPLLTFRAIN
In short: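 V79 hamster cells stably expressing human CYP11B1 and rat NADPH-P450 reductase were preincubated with compounds for 2 h. 11-Deoxycortisol (200 nM) was then added as substrate for 30 min before ethyl acetate quench. Substrate and product were quantified by LC-MS/MS or HPLC at 260 nm, and IC50 was derived from percent inhibition.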

[2] = molecular target: T2, human CYP11B2 (Homo sapiens, UniProt P19099); assay: Inhibition of hCYP11B2 in transfected V79 cells; type: cell-based; conditions: hamster V79 cells expressing human CYP11B2; substrate 11-deoxycorticosterone 200 nM
T2 construct: expressed in transfected cells
T2 sequence (P19099 25-503): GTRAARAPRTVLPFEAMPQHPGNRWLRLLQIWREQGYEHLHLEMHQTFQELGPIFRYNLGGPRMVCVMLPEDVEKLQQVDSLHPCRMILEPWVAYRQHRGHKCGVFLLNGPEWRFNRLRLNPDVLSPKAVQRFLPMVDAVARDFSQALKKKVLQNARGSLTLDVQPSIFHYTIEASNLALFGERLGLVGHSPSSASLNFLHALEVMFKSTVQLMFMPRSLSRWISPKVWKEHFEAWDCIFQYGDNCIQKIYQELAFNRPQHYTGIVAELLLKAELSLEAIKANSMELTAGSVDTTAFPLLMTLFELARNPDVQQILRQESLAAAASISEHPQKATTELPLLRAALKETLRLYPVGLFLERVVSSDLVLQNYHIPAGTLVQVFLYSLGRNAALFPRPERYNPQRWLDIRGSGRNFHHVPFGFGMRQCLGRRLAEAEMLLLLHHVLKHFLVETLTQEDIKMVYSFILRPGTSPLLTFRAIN
In short: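 Hamster V79 cells stably co-expressing human CYP11B2 and rat NADPH-P450 reductase were pre-incubated with compounds for 2 hours, then given 200 nM 11-deoxycorticosterone for 30 minutes before ethyl acetate quench. Substrate and product were quantified by LC-MS/MS or HPLC at 260 nm, and IC50 was derived from percent inhibition.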

SMILES	IC50 [1] [nM]	IC50 [2] [nM]
N#Cc1ccc(-c2cncc3c2OCCN3C(=O)C2CN(Cc3cccc(F)c3)C2)cc1 [O78, 4-(4-(1-(3-Fluorobenzyl)azetidine-3-carbonyl)-3,4-dihydro-2H-pyrido[4,3-b][1,4]oxazin-8-yl)benzonitrile]	183	2.1
N#Cc1ccc(-c2cncc3c2OCCN3C(=O)CCc2ccc(Cl)cc2)cc1 [O49, 4-(4-(3-(4-Chlorophenyl)propanoyl)-3,4-dihydro-2H-pyrido[4,3-b][1,4]oxazin-8-yl)benzonitrile]	54	1.6
N#Cc1ccc(-c2cncc3c2SCCN3S(=O)(=O)c2cccc(F)c2)cc1 [S9, 4-(4-((3-Fluorophenyl)sulfonyl)-3,4-dihydro-2H-pyrido[4,3-b][1,4]thiazin-8-yl)benzonitrile]	0.7	0.2
N#Cc1ccc(S(=O)(=O)N2CCSc3c(-c4ccn5ccnc5c4)cncc32)cc1 [S50, 4-((8-(Imidazo[1,2-a]pyridin-7-yl)-2,3-dihydro-4H-pyrido[4,3-b][1,4]thiazin-4-yl)sulfonyl)benzonitrile]	298	52
O=C(c1ccccc1F)N1CCc2c(-c3cccc(F)c3)cncc21 [C52, (2-fluorophenyl)(4-(3-fluorophenyl)-2,3-dihydro-1H-pyrrolo[2,3-c]pyridin-1-yl)methanone]	891	44
N#Cc1ccc(-c2cncc3c2CCN3S(=O)(=O)c2cccc(F)c2)cc1 [C6, 4-(1-((3-Fluorophenyl)sulfonyl)-2,3-dihydro-1H-pyrrolo[2,3-c]pyridin-4-yl)benzonitrile]	1.2	0.3
N#Cc1ccc(-c2cncc3c2OCCN3C(=O)c2cccc(Cl)c2)cc1 [O29, 4-(4-(3-Chlorobenzoyl)-3,4-dihydro-2H-pyrido[4,3-b][1,4]oxazin-8-yl)benzonitrile]	1710	5.9
N#Cc1ccc(S(=O)(=O)N2CCSc3c(-c4ccc5[nH]ncc5c4)cncc32)cc1 [S48, 4-((8-(1H-Indazol-5-yl)-2,3-dihydro-4H-pyrido[4,3-b][1,4]thiazin-4-yl)sulfonyl)benzonitrile]	14	25
N#Cc1ccc(-c2cncc3c2CCN3C(=O)c2cccnc2)cc1 [C29, 4-(1-Nicotinoyl-2,3-dihydro-1H-pyrrolo[2,3-c]pyridin-4-yl)benzonitrile]	185	1.7
N#Cc1ccc(-c2cncc3c2CCN3S(=O)(=O)c2cccc(C(F)(F)F)c2)cc1 [C20, 4-(1-((3-[Trifluoromethyl]phenyl)sulfonyl)-2,3-dihydro-1H-pyrrolo[2,3-c]pyridin-4-yl)benzonitrile]	0.4	1.8
COc1cccc(CC(=O)N2CCOc3c(-c4ccc(C#N)cc4)cncc32)c1 [O41, 4-(4-(2-(3-Methoxyphenyl)acetyl)-3,4-dihydro-2H-pyrido[4,3-b][1,4]oxazin-8-yl)benzonitrile]	52	1.8
N#Cc1ccc(-c2cncc3c2CCN3C(=O)Cc2cccc(Cl)c2)cc1 [C71, 4-(1-(2-(3-Chlorophenyl)acetyl)-2,3-dihydro-1H-pyrrolo[2,3-c]pyridin-4-yl)benzonitrile]	28	2
N#Cc1ccc(-c2cncc3c2OCCN3C(=O)CCl)cc1 [O33, 4-(4-(2-Chloroacetyl)-3,4-dihydro-2H-pyrido[4,3-b][1,4]oxazin-8-yl)benzonitrile]	1270	18.3
Cc1ccccc1CC(=O)N1CCc2c(-c3ccc(C#N)cc3)cncc21 [C64, 4-(1-(2-(o-Tolyl)acetyl)-2,3-dihydro-1H-pyrrolo[2,3-c]pyridin-4-yl)benzonitrile]	258	5.3
Cc1ccc(S(=O)(=O)N2CC(C(=O)N3CCOc4c(-c5ccc(C#N)cc5)cncc43)C2)cc1 [O65, 4-(4-(1-Tosylazetidine-3-carbonyl)-3,4-dihydro-2H-pyrido[4,3-b][1,4]oxazin-8-yl)benzonitrile]	521	2.5
COc1cccc(C(=O)N2CCc3c(C4=CCN(C#N)CC4)cncc32)c1 [C82, 4-(1-(3-Methoxybenzoyl)-2,3-dihydro-1H-pyrrolo[2,3-c]pyridin-4-yl)-3,6-dihydropyridine-1 (2H)-carbonitrile]	537	3
N#Cc1ccc(-c2cncc3c2ccn3S(=O)(=O)c2cccc(C(F)(F)F)c2)cc1 [E5, 4-(1-((3-(Trifluoromethyl)phenyl)sulfonyl)-1H-pyrrolo[2,3-c]pyridin-4-yl)benzonitrile]	0.6	0.3
O=C1COc2ccc(S(=O)(=O)N3CCSc4c(-c5cc6cc(Cl)ccc6o5)cncc43)cc2N1 [S59, 6-((8-(5-Chlorobenzofuran-2-yl)-2,3-dihydro-4H-pyrido[4,3-b][1,4]thiazin-4-yl)sulfonyl)-2H-benzo[b][1,4]oxazin-3 (4H)-one]	48	0.5
COc1cccc(C(=O)N2CCc3c(N4CCN(C#N)CC4)cncc32)c1 [C83, 4-(1-(3-Methoxybenzoyl)-2,3-dihydro-1H-pyrrolo[2,3-c]pyridin-4-yl)piperazine-1-carbonitrile]	672	6
N#Cc1ccc(-c2cncc3c2OCCN3S(=O)(=O)c2cccc3cccnc23)cc1 [O15, 4-(4-(Quinolin-8-ylsulfonyl)-3,4-dihydro-2H-pyrido[4,3-b][1,4]oxazin-8-yl)benzonitrile]	1.46	0.25
Cn1cc(S(=O)(=O)N2CCSc3c(-c4cc5cc(Cl)ccc5o4)cncc32)cn1 [S55, 8-(5-Chlorobenzofuran-2-yl)-4-((1-methyl-1H-pyrazol-4-yl)sulfonyl)-3,4-dihydro-2H-pyrido[4,3-b][1,4]thiazine]	10.6	0.2
COc1cccc(CCC(=O)N2CCOc3c(-c4ccc(C#N)cc4)cncc32)c1 [O52, 4-(4-(3-(3-Methoxyphenyl)propanoyl)-3,4-dihydro-2H-pyrido[4,3-b][1,4]oxazin-8-yl)benzonitrile]	51	1.1
N#Cc1ccc(-c2cncc3c2OCCN3C(=O)C2CN(c3cccc(C#N)c3)C2)cc1 [O86, 3-(3-(8-(4-Cyanophenyl)-3,4-dihydro-2H-pyrido[4,3-b][1,4]oxazine-4-carbonyl)azetidin-1-yl)benzonitrile]	72	0.8
N#Cc1ccc(-c2cncc3c2CCN3S(=O)(=O)c2cccs2)cc1 [C17, 4-(1-(Thiophen-2-ylsulfonyl)-2,3-dihydro-1H-pyrrolo[2,3-c]pyridin-4-yl)benzonitrile]	7.8	3.5
N#Cc1ccc(-c2cncc3c2SCCN3S(=O)(=O)c2ccc([N+](=O)[O-])cc2)cc1 [S19, 4-(4-((4-Nitrophenyl)sulfonyl)-3,4-dihydro-2H-pyrido[4,3-b][1,4]thiazin-8-yl)benzonitrile]	1.2	0.1
CC(=O)Nc1nc(C)c(S(=O)(=O)N2CCSc3c(-c4cc5cc(Cl)ccc5o4)cncc32)s1 [S57, N-(5-((8-(5-Chlorobenzofuran-2-yl)-2,3-dihydro-4H-pyrido[4,3-b][1,4]thiazin-4-yl)sulfonyl)-4-methylthiazol-2-yl)acetamide]	66	3.9
N#Cc1ccc(C(=O)N2CC(S(=O)(=O)N3CCOc4c(-c5ccc(C#N)cc5)cncc43)C2)cc1 [O111, 4-(4-((1-(4-Cyanobenzoyl)azetidin-3-yl)sulfonyl)-3,4-dihydro-2H-pyrido[4,3-b][1,4]oxazin-8-yl)benzonitrile]	216	23.2
N#Cc1ccc(-c2cncc3c2OCCN3S(=O)(=O)C2CN(S(=O)(=O)c3cccc(F)c3)C2)cc1 [O117, 4-(4-((1-((3-Fluorophenyl)sulfonyl)azetidin-3-yl)sulfonyl)-3,4-dihydro-2H-pyrido[4,3-b][1, 4]oxazin-8-yl)benzonitrile]	45	2.4
N#Cc1ccc(-c2cncc3c2CCN3S(=O)(=O)c2ccc(C(F)(F)F)cc2)cc1 [C4, 4-(1-((4-(Trifluoromethyl)phenyl)sulfonyl)-2,3-dihydro-1H-pyrrolo[2,3-c]pyridin-4-yl)benzonitrile]	0.36	0.64

Source: patent publication US20260092074A1, “Annelated Pyridines as Steroidogenesis Inhibitors, Preparation Method and Use Thereof” (Guangzhou Vinnocent Pharmaceutical Limited, priority 2022, published 2026)
